Experimental data from patent US20230002327A1, “SMALL-MOLECULE REGULATOR OF TLR8” (TSINGHUA UNIVERSITY, priority 2019, published 2023).

Experiments:
[1] = test system: R848-induced signaling pathway in human peripheral blood mononuclear cells; test: ELISA of TNF-α in R848-treated human peripheral blood mononuclear cells; format: cell-based; conditions: human peripheral blood mononuclear cells (FIG. 8)
Description: After 48 hours, suspending cells would adhere onto the surface of the 12-well plate, non-adhered cells and the medium were aspirated, and cells were washed with sterile […] buffer (3×1 mL). RPMI medium was added (1 mL/well), and R848 (1 μg/mL) and various concentrations of Compound 24 or Compound 10 (as a negative control) were further added to treat cells. Or, the same amount of peripheral blood mononuclear cells derived from healthy human were used instead of THP-1 cells for subsequent experiments.
After 24 hours, the supernatant of the medium was collected and stored in a freezer at −80° C. Cells were washed with PBS (3×1 mL), the 12-well plate was placed on ice, and then 400 μL of lysis buffer (containing protease inhibitor) was added to each well, during which the cells were pipetted every five minutes. After 20 minutes, the mixture was transferred to the corresponding 1.5-mL tube and centrifuged at 13.2K rpm and 4° C. for 20 minutes. 350 μL of the supernatant was collected into a new centrifuge tube and frozen at −80° C.
Cytokines interleukin-1β(IL-1β), interleukin-6 (IL-6) and tumor necrosis factor (TNF-α) were quantified by enzyme-linked immunosorbent assay (ELISA) according to the instructions of the kit provided by the manufacturer.

[2] = test system: peripheral blood mononuclear cells of patients suffering from rheumatoid arthritis; test: TNF-α in PBMC of rheumatoid arthritis patients; format: cell-based, human; conditions: PBMC derived from rheumatoid arthritis patients (FIG. 9)
Description: Approximately 8 mL of blood was collected from untreated rheumatoid arthritis patients.
Peripheral blood mononuclear cells (PBMCs) were isolated from the whole blood derived from 6 rheumatoid arthritis patients using the lymphocyte separation medium, and the cells were seeded in a 96-well round-bottom plate at a density of 1×10^6 cells/mL immediately after the isolation (cultured in RPMI 1640 (0.25 mL/well)).
Afterwards, cells were treated with 0, 10, 20, 40 and 80 μM Compound 24, Compound 10 was used as a negative control, and cells were placed in a cell incubator (37° C., 5% CO2) for incubation.
After 24 hours, the resultant was centrifuged at 4,000 rpm/minute for 10 minutes, and then the supernatant was collected, frozen to −80° C. and used for the determination of TNF-α. Quantification was conducted using a human TNF ELISA Kit.

## OCCCc1nnc(S)n1-c1ccc(Cl)cc1Cl [Compound 10, 3-(4-(2,4-dichlorophenyl)-5-mercapto-4H-1,2,4-triazole-3-yl)propan-1-ol]
[1]
  inhibitory effect on inflammatory factor TNF-α: did not exert inhibitory effect
[2]
  inhibitory effect on inflammatory factor TNF-α: did not show such effect
